Assay results as given in PubChem BioAssay AID256 (DTP/NCI, 2004).
Where “and” joins values, the source holds several entries; their conditions need not be identical. Equal entries are not always repeated. Inconclusive results and toxic doses are left out.

System: CD2F1 mice, L1210 leukemia ip, survival T/C
Assay: NCI In Vivo Anticancer Drug Screen. Data for tumor model L1210 Leukemia (intraperitoneal) in CD2F1 (CDF1) mice
Settings: higher = longer survival
Procedure, shortened: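 Mice carrying a transplanted tumor received test compound or vehicle alone. The value is the measurement in the treated group divided by that in the vehicle-treated control group.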

[1] = endpoint: mean survival time, dose: 100.0 mg/kg/injection, schedule: Q04DX003 (ip), vehicle: saline with Tween-80
[2] = endpoint: mean survival time, dose: 200.0 mg/kg/injection, schedule: Q04DX003 (ip), vehicle: saline with Tween-80
[3] = endpoint: mean survival time, dose: 400.0 mg/kg/injection, schedule: Q04DX003 (ip), vehicle: saline with Tween-80
[4] = endpoint: mean survival time, dose: 75.0 mg/kg/injection, schedule: Q01DX001 (ip), vehicle: saline
[5] = endpoint: mean survival time, dose: 150.0 mg/kg/injection, schedule: Q01DX001 (ip), vehicle: saline
[6] = endpoint: mean survival time, dose: 100.0 mg/kg/injection, schedule: Q04DX003 (ip), vehicle: saline
[7] = endpoint: mean survival time, dose: 200.0 mg/kg/injection, schedule: Q04DX003 (ip), vehicle: saline
[8] = endpoint: mean survival time, dose: 400.0 mg/kg/injection, schedule: Q04DX003 (ip), vehicle: saline
[9] = endpoint: mean survival time, dose: 100.0 mg/kg/injection, schedule: Q04DX002 (ip), vehicle: saline
[10] = endpoint: mean survival time, dose: 200.0 mg/kg/injection, schedule: Q04DX002 (ip), vehicle: saline
[11] = endpoint: mean survival time, dose: 100.0 mg/kg/injection, schedule: Q01DX001 (ip), vehicle: saline with Tween-80
[12] = endpoint: mean survival time, dose: 200.0 mg/kg/injection, schedule: Q01DX001 (ip), vehicle: saline with Tween-80
[13] = endpoint: mean survival time, dose: 100.0 mg/kg/injection, schedule: Q04DX003 (ip), vehicle: Klucel (hydroxypropylcellulose) (HPC)
[14] = endpoint: mean survival time, dose: 100.0 mg/kg/injection, schedule: Q01DX009 (ip), vehicle: saline with Tween-80
[15] = endpoint: mean survival time, dose: 200.0 mg/kg/injection, schedule: Q01DX009 (ip), vehicle: saline with Tween-80

O=C(Nc1ccc2c(c1)Cc1cc(Br)ccc1-2)C(F)(F)F
T/C [1]: 101 % of control | T/C [2]: 97 % of control | T/C [3]: 101 % of control

CCOC(=O)C(NC(N)=O)C(=O)OCC
T/C (endpoint: mean survival time, dose: 25.0 mg/kg/injection, schedule: Q01DX009 (ip), vehicle: water): 91 % of control | T/C (endpoint: mean survival time, dose: 50.0 mg/kg/injection, schedule: Q01DX009 (ip), vehicle: water): 91 % of control | T/C (endpoint: mean survival time, dose: 100.0 mg/kg/injection, schedule: Q01DX009 (ip), vehicle: water): 93 % of control | T/C (endpoint: mean survival time, dose: 200.0 mg/kg/injection, schedule: Q01DX009 (ip), vehicle: water): 89 % of control | T/C (endpoint: mean survival time, dose: 400.0 mg/kg/injection, schedule: Q01DX009 (ip), vehicle: water): 93 % of control

COC(=O)c1ccncc1
T/C (endpoint: mean survival time, dose: 100.0 mg/kg/injection, schedule: Q01DX009 (ip), vehicle: saline): 102 % of control | T/C (endpoint: mean survival time, dose: 200.0 mg/kg/injection, schedule: Q01DX009 (ip), vehicle: saline): 108 % of control | T/C (endpoint: mean survival time, dose: 400.0 mg/kg/injection, schedule: Q01DX009 (ip), vehicle: saline): 100 % of control

CC(C)N1CCOC1c1ccccc1 (stereo not drawn)
T/C [4]: 101 % of control | T/C [5]: 101 % of control | T/C (endpoint: mean survival time, dose: 300.0 mg/kg/injection, schedule: Q01DX001 (ip), vehicle: saline): 97 % of control

CN(C)N=Nc1ccc(C(=O)N/N=C/c2ccccc2[N+](=O)[O-])cc1
T/C [6]: 104 % of control | T/C [7]: 101 % of control | T/C [8]: 115 % of control

NCCCN1CCN(CCCN)CC1
T/C [9]: 98 % of control | T/C [10]: 91 % of control | T/C (endpoint: mean survival time, dose: 400.0 mg/kg/injection, schedule: Q04DX002 (ip), vehicle: saline): 98 % of control

CC1(C)COC(c2ccccc2)OC1
T/C [11]: 95 % of control | T/C [12]: 103 % of control | T/C (endpoint: mean survival time, dose: 400.0 mg/kg/injection, schedule: Q01DX001 (ip), vehicle: saline with Tween-80): 101 % of control

O=C([O-])CC[n+]1ccn(CCC(=O)O)c1
T/C [6]: 109 % of control | T/C [7]: 103 % of control | T/C [8]: 111 % of control

CCC1(OC(=O)CN2CCN(CCO)CC2)C(=O)OCc2c1cc1n(c2=O)Cc2cc3ccccc3nc2-1 (stereo not drawn)
T/C (endpoint: median survival time, dose: 6.25 mg/kg/injection, schedule: Q04DX002 (ip), vehicle: water): 105 % of control and 108 % of control | T/C (endpoint: median survival time, dose: 12.5 mg/kg/injection, schedule: Q04DX002 (ip), vehicle: water): 108 % of control and 112 % of control | T/C (endpoint: median survival time, dose: 25.0 mg/kg/injection, schedule: Q04DX002 (ip), vehicle: water): 122 % of control and 110 % of control | T/C (endpoint: median survival time, dose: 100.0 mg/kg/injection, schedule: Q04DX002 (ip), vehicle: water): 177 % of control

CCOC(=O)c1cnc2c(cnn2CC)c1N1CCN(CCO)CC1
T/C [13]: 101 % of control

COC(=O)CC(OC)OC
T/C [6]: 103 % of control | T/C [7]: 94 % of control | T/C [8]: 92 % of control

O=C1NC(=O)C2(CCc3ccccc32)N1 (stereo not drawn)
T/C [1]: 110 % of control | T/C [2]: 98 % of control | T/C [3]: 96 % of control

CCOC(=O)C(CNc1ccccc1)C(=O)OCC
T/C [1]: 101 % of control | T/C [2]: 104 % of control | T/C [3]: 104 % of control

CS(=O)(=O)c1cc(C(F)(F)F)cc([N+](=O)[O-])c1Cl
T/C (endpoint: mean survival time, dose: 50.0 mg/kg/injection, schedule: Q01DX009 (ip), vehicle: saline with Tween-80): 103 % of control | T/C [14]: 103 % of control | T/C [1]: 97 % of control | T/C [2]: 94 % of control

COc1ccc2c(c1O)CNCC2c1ccc(O)cc1O (stereo not drawn)
T/C [4]: 100 % of control | T/C [5]: 98 % of control

O=C(OC1CCC(c2ccccc2)C1)c1cc([N+](=O)[O-])cc([N+](=O)[O-])c1 (stereo not drawn)
T/C (endpoint: mean survival time, dose: 75.0 mg/kg/injection, schedule: Q01DX001 (ip), vehicle: other): 92 % of control | T/C (endpoint: mean survival time, dose: 150.0 mg/kg/injection, schedule: Q01DX001 (ip), vehicle: other): 92 % of control | T/C (endpoint: mean survival time, dose: 300.0 mg/kg/injection, schedule: Q01DX001 (ip), vehicle: other): 92 % of control

CC(=O)c1ccc2c3c(ccc([N+](=O)[O-])c13)C(=O)OC2=O
T/C [1]: 91 % of control | T/C [2]: 95 % of control

C[N+](C)(C)CCC(=O)c1ccc(C(=O)CC[N+](C)(C)C)cc1
T/C (endpoint: mean survival time, dose: 50.0 mg/kg/injection, schedule: Q04DX002 (ip), vehicle: saline): 96 % of control | T/C [11]: 100 % of control | T/C [9]: 96 % of control | T/C [12]: 94 % of control | T/C [10]: 96 % of control

O=C(NCCSC(=O)Nc1ccccc1)Nc1ccccc1
T/C [14]: 95 % of control | T/C [15]: 94 % of control | T/C (endpoint: mean survival time, dose: 400.0 mg/kg/injection, schedule: Q01DX009 (ip), vehicle: saline with Tween-80): 94 % of control

CCCCOCCOCCOCc1cc2c(cc1CCC)OCO2
T/C (endpoint: mean survival time, dose: 50.0 mg/kg/injection, schedule: Q01DX009 (ip), vehicle: Klucel (hydroxypropylcellulose) (HPC)): 96 % of control | T/C (endpoint: mean survival time, dose: 100.0 mg/kg/injection, schedule: Q01DX009 (ip), vehicle: Klucel (hydroxypropylcellulose) (HPC)): 89 % of control | T/C (endpoint: mean survival time, dose: 200.0 mg/kg/injection, schedule: Q01DX009 (ip), vehicle: Klucel (hydroxypropylcellulose) (HPC)): 100 % of control

CC1(c2ccccc2)C=CC(=O)CC1 (stereo not drawn)
T/C (endpoint: mean survival time, dose: 100.0 mg/kg/injection, schedule: Q04DX002 (ip), vehicle: saline with Tween-80): 93 % of control | T/C (endpoint: mean survival time, dose: 200.0 mg/kg/injection, schedule: Q04DX002 (ip), vehicle: saline with Tween-80): 101 % of control | T/C (endpoint: mean survival time, dose: 400.0 mg/kg/injection, schedule: Q04DX002 (ip), vehicle: saline with Tween-80): 97 % of control

CC(C)(C)C(=O)/C=C/c1ccccc1
T/C (endpoint: mean survival time, dose: 50.0 mg/kg/injection, schedule: Q04DX003 (ip), vehicle: Klucel (hydroxypropylcellulose) (HPC)): 96 % of control | T/C [13]: 98 % of control and 102 % of control | T/C (endpoint: mean survival time, dose: 200.0 mg/kg/injection, schedule: Q04DX003 (ip), vehicle: Klucel (hydroxypropylcellulose) (HPC)): 98 % of control and 110 % of control | T/C (endpoint: mean survival time, dose: 400.0 mg/kg/injection, schedule: Q04DX003 (ip), vehicle: Klucel (hydroxypropylcellulose) (HPC)): 106 % of control

Cc1c2c(O)c(O)c(O)cc2c[n+]2ccccc12
T/C (endpoint: mean survival time, dose: 50.0 mg/kg/injection, schedule: Q01DX009 (ip), vehicle: saline): 101 % of control

C=C1C(=O)OC2CC3(C)OC3CC/C(C)=C/C(OC(C)=O)C12 (stereo not drawn)
T/C [1]: 105 % of control | T/C [2]: 91 % of control

O=S(O)C(=NCc1ccccc1)NCc1ccccc1
T/C [14]: 105 % of control | T/C [15]: 86 % of control

Cc1cc(C)c2c(C#N)cn(-c3cccc(Cl)c3)c2n1
T/C [6]: 97 % of control

Nc1nc(N)c2c(Cl)c(CNc3ccc(C(=O)NC(CC(=O)O)C(=O)O)cc3)ccc2n1 (stereo not drawn)
T/C (endpoint: mean survival time, dose: 2.0 mg/kg/injection, schedule: Q01DX001 (ip), vehicle: saline): 121 % of control | T/C (endpoint: mean survival time, dose: 2.0 mg/kg/injection, schedule: Q01DX009 (oral), vehicle: saline): 94 % of control | T/C (endpoint: mean survival time, dose: 2.0 mg/kg/injection, schedule: Q03HX024 (ip), vehicle: saline): 101 % of control | T/C (endpoint: mean survival time, dose: 2.0 mg/kg/injection, schedule: Q08DX002 (ip), vehicle: saline): 104 % of control | T/C (endpoint: mean survival time, dose: 4.0 mg/kg/injection, schedule: Q01DX001 (oral), vehicle: saline): 103 % of control | T/C (endpoint: mean survival time, dose: 4.0 mg/kg/injection, schedule: Q01DX009 (ip), vehicle: saline): 120 % of control | T/C (endpoint: mean survival time, dose: 4.0 mg/kg/injection, schedule: Q01DX009 (sc), vehicle: saline): 98 % of control | T/C (endpoint: mean survival time, dose: 8.0 mg/kg/injection, schedule: Q01DX009 (oral), vehicle: saline): 118 % of control | T/C (endpoint: mean survival time, dose: 8.0 mg/kg/injection, schedule: Q03HX024 (ip), vehicle: saline): 95 % of control | T/C (endpoint: mean survival time, dose: 16.0 mg/kg/injection, schedule: Q01DX001 (oral), vehicle: saline): 120 % of control | T/C (endpoint: mean survival time, dose: 16.0 mg/kg/injection, schedule: Q01DX009 (ip), vehicle: saline): 88 % of control | T/C (endpoint: mean survival time, dose: 16.0 mg/kg/injection, schedule: Q01DX009 (sc), vehicle: saline): 87 % of control | T/C (endpoint: mean survival time, dose: 16.0 mg/kg/injection, schedule: Q03HX016 (ip), vehicle: saline): 98 % of control | T/C (endpoint: mean survival time, dose: 32.0 mg/kg/injection, schedule: Q01DX009 (oral), vehicle: saline): 93 % of control | T/C (endpoint: mean survival time, dose: 512.0 mg/kg/injection, schedule: Q01DX001 (sc), vehicle: saline): 96 % of control

NC(N)=NCC(=O)O
T/C [1]: 94 % of control | T/C [2]: 102 % of control | T/C [3]: 98 % of control
